Reference: patent US5104859A, “Continuous administration of adenosine to reduce pulmonary vascular resistance” (priority 1990, dated 1992)
“Also recorded” adds a separate entry of the source. Like-named read-outs stand apart in the source and are kept apart here.

Experiments:
[1] = Clinical observations during and after cardiopulmonary bypass
Method: During cardiopulmonary bypass (CPB), mean arterial blood pressure (MABP) above 70 mmHg was treated with the vasodilator sodium nitroprusside (SNP), except in the final phase or rewarming. CPB was performed with SARN roller pump and a Shiley oxygenator (100A) primed with 2000 ml crystalloid solution (75 mg heparin). The perfusion rate was kept at approximately […] body surface. Moderate hypothermia (25° C.) was induced. Cardioplegia was obtained with Ringer's solution (with added potassium up to 20 mM/1). Heparin (3 mg/kg) was administered as a bolus injection before cannulation. The heparin effect was controlled by measurements of activated clotting time. (Hemocron® Int. Technidyne Corp, USA). […] At the termination of CPB, the heparin effect was antagonized with protamine (c. 1.3 mg/mg heparin). ACT was checked 10-20 min after the protamine injection. ACT values 120 sec were considered satisfactory.
Platelet count (Linson 431 A cell counter) and hematocrit were determined in arterial samples before anesthesia, after thoracotomy, during CPB at 10, 20, 40, 60, 80 and 100 min, 30 min after CPB and on the postoperative day. Platelet counts were expressed in percentage of preanesthesia levels and were corrected for hemodilution. MABP was monitored continuously via a catheter introduced in the radial artery. All patients received hypertonic mannitol (1-1.5 g/kg) during CPB and urine production was calculated as ml/.min of CPB (Table VI).
Postoperative bleeding was measured as the blood loss from the tube drainage from the end of operation until the postoperative morning.
In six cases the plasma adenosine levels were determined by high performance liquid chromatography (HPLC) (Fredholm and Sollevi, J. Physiol. (London), 313: 351-67 (1981) in arterial and in venous (venous lines to the oxygenator) blood. The adenosine metabolites inosine, hypoxanthine and uric acid were also determined by HPLC. The samples were collected as previously described (Sollevi, Acta. Physiol. Scand., 121: 165-72 (1984) at the intervals of 10, 20, 40 and 80 minutes during CPB and 20 minutes after CPB.
Statistical significance (controls v. adenosine group) was determinted with Student's t-test for unpaired data. For significance within the groups the Wilcoxon Rank Sum test was used. p […] 0.05 was regarded as significant.

Solubility of adenosine = format: physicochemical; conditions: for solubility: read-out: solubility limit
[2] = tested on: pulmonary vascular resistance; conditions: systemic vasodilator doses
cardiovascular system = conditions: bolus about 37.5 to 450 micrograms/kg; cited from earlier work
blood pressure = assay: Control of hypertensive crisis during surgery; format: in vivo, human; conditions: about 0.1 to about 0.2 mg/kg/min
Method: Continuous infusion of adenosine can also be employed to control hypertensive crises occurring during surgery. Such crises can occur, for example, as a result of release of catecholamines during surgery on pheochromocytoma--a tumor characterized by the presence of catecholamine--which can cause pulmonary edema and death. At present, this situation is treated prophylactically by pre-administration of alpha- and beta-adrenoceptor blockers or vasodilators, but the effect is often insufficient. […] Amounts of adenosine which are effective in controlling such hypertensive crises will depend on the degree of hypertension. However, as a general rule they are about half of the amounts found useful for controlled hypotension, i.e., in the range of from about 0.1 to about 0.2 mg adenosine per kilogram of body weight per minute.

[3] = human, in vivo
coronary bypass grafts = assay: Coronary bypass graft flow and hemodynamics during coronary artery surgery
Method: It has been reported that coronary artery grafts occlude more frequently during the postoperative period when low graft-flow values are obtained during surgery. See Groudin et al, Circulation, 42: Suppl 3: 106-111 (1970).
In a study designed to investigate the use of adenosine to inhibit occlusion of coronary grafts, nine patients (age 45-65, all taking beta-blockers) were studied during coronary artery surgery. After premedication, morphine (10-15 mg) and scopolamine (0.4-0.6 mg), anesthesia was induced by fentanyl (30 mcg/kg.b.w.). Pancuronium (0.1 mg/kg b.w.) was given to facilitate endotracheal intubation. Anesthesia was maintained with fentanyl 0.5 mg/hour, N2 O (50%) in oxygen and droperidol (0.1 mg/kg b.w.). During bypass thiomebumal (5 mg/kg b.w.) was given. Nitrous oxide was not used after bypass. Extracorporeal circulation (ECC) was performed with a roller pump and a Shiley bubble oxyqenator primed with crystalloid solution. ECG (modified V5), an arterial line and a Swan-Ganz Catheter were used for monitoring and for hemodynamic measurements. Blood flow in bypass grafts (n=15, internal mammary and venous grafts), was measured with appropriate sized square wave electromagnetic flow probes (Nycotron 732). The study was performed 20-30 minutes after the termination of ECC. After a control period (5 min), adenosine (5.3 mg/ml. clinical solution) was continuously infused in a central vein in order to induce approximately 10% reduction of mean arterial blood pressure (about 30 to 50 ug per kg. per min.). Graft flow was continuously measured before and during a 10 or 30 minute infusion of adenosine and finally during the following 5 minute control period. Data are expressed as mean ±SEM and differences were tested with Student's paired t-test against the preceding period.

[4] = tested on: atrio-ventricular (A-V) node; conditions: through blockage of the A-V node; cited from earlier work

Nc1ncnc2c1ncn2[C@@H]1O[C@H](CO)[C@@H](O)[C@H]1O [adenosine]
systemic vasodilation at chosen infusion rate ([1]; 100 ug/kg/min, highest such rate in pilot cases): did not induce systemic vasodilation
Preoperative urine production ([1]; 0.1 mg per kg per min, with range in parentheses): 4.1 (1.1-9.5) ml/min. CPB
urine production during CPB ([1]; 500 ml/h in controls, p<0.01): 250 mL/h
MABP during CPB vs placebo ([1]; human, in vivo): did not differ significantly
postoperative blood loss vs control ([1]; human, in vivo): did not differ
MABP after CPB ([1]; no intergroup difference at end of operation): slightly lower MABP
patients with transient creatinine elevation ([1]; one control patient): two
patients requiring vasodilator treatment ([1]; placebo: seven required nitroprusside): No patient
transient elevation of serum creatinine above normal range ([1]; two postoperative days): 10-20%
solubility limit (Solubility of adenosine; b421 prints mg/ml): 5.5-6 milligrams per milliliter
solubility (Solubility of adenosine; b421 prints mg/ml): 5500 to 6000 µg/mL
solubility (Solubility of adenosine): ~20 mM
normal pulmonary vascular resistance [2]: negligible or at most, minor effect
vasodilating action of injectable bolus (cardiovascular system): little detectable vasodilating action
blood pressure in catecholamine-induced hypertensive crisis (blood pressure): rapidly restore blood pressure to normal
symptoms in awake patient at higher doses [3]: facial flushing, neck and chest oppression, palpitation and increased rate of respiration
graft blood flow, post-operative low dose (coronary bypass grafts; 0.02 to 0.05 mg/kg/min, words): increase graft blood flow
graft flow (coronary bypass grafts; 30-50 ug per kg per min): doubled graft flow; also recorded: marked and reproducible increase in graft flow
myocardial work (coronary bypass grafts; 30-50 ug per kg per min): without increased myocardial work
arrhythmias (coronary bypass grafts; 49±4 ug/kg/minute): No arrhythmias were observed
heart rate, mean pulmonary artery pressure, central venous pressure, stroke index and left ventricular stroke work index (coronary bypass grafts; 49±4 ug/kg/minute): remained essentially unchanged
increase of cardiac output (coronary bypass grafts; 49±4 ug/kg/minute): 12%
reduction of mean arterial pressure (coronary bypass grafts; 49±4 ug/kg/minute): 12%
Cardiac output (coronary bypass grafts; control after adenosine): 5.3 ± 0.3 L/min
Left Ventricular Stroke Index (coronary bypass grafts; control after adenosine): 0.49 ± 0.04 Joule/n^2
Mean Arterial Pressure (coronary bypass grafts; control after adenosine): 85 ± 3 mmHg
Pulmonary Artery Pressure (mean) (coronary bypass grafts; control after adenosine): 19.9 ± 1.0 mmHg
RAP (mean) (coronary bypass grafts; control after adenosine): 5.8 ± 0.7 mmHg
Stroke Index (coronary bypass grafts; control after adenosine): 39.6 ± 2.5 ml/m^2
heart rate (coronary bypass grafts; control after adenosine): 81 ± 6 beats/min.
graft flow (coronary bypass grafts; control after adenosine, n = 15): 39 ± 5 mL/min
Cardiac output (coronary bypass grafts; during adenosine): 5.6 ± 0.3 L/min
Left Ventricular Stroke Index (coronary bypass grafts; during adenosine): 0.41 ± 0.03 Joule/n^2
Mean Arterial Pressure (coronary bypass grafts; during adenosine): 74 ± 3 mmHg
Pulmonary Artery Pressure (mean) (coronary bypass grafts; during adenosine): 18.8 ± 1.2 mmHg
RAP (mean) (coronary bypass grafts; during adenosine): 5.3 ± 0.4 mmHg
Stroke Index (coronary bypass grafts; during adenosine): 38.8 ± 2.0 ml/m^2
heart rate (coronary bypass grafts; during adenosine): 82 ± 15 beats/min.
graft flow (coronary bypass grafts; during adenosine, n = 15): 77 ± 7 mL/min
graft flow rate on termination of adenosine (coronary bypass grafts; in vivo): restored to its original value
atrio-ventricular conductance at low dose (coronary bypass grafts; post-operative low doses, words): without significant effect on atrio-ventricular conductance
heart block [4]: produce heart block
